Laboratory results reported in patent US8039495B2, “Biphenyl carboxylic acids and bioisosteres as glycogen synthase activators” (Hoffman-La Roche Inc., priority 2009, dated 2011).

Test system: glycogen synthase
Assay: Glycogen Synthase (GS) Assay
Assay type: biochemical
Conditions: for EC50: compound concentration needed to give 50% maximum activation; for GS SC200: compound concentration needed to stimulate 200% of the enzyme activity
Protocol: Twelve μL per well of substrate solution containing glycogen (4.32 mg/ml), 2.67 mM UDP-glucose, 21.6 mM phospho(enol)pyruvate and 2.7 mM NADH in 30 mM glycylglycine, pH 7.3 buffer was added into a polystyrene 384-well assay plate (BD Biosciences).
Compound solutions (8 μL/well) at various concentrations (0-300 μM) were added to the assay plate (columns 5-24). Compound solution contains 30 mM glycylglycine, pH 7.3, 40 mM KCl, 20 mM MgCl2, 9.2% DMSO, with (columns 15-24) or without (columns 5-14) 20 mM glucose 6-phosphate.
Enzyme solution (12 μL/well) containing glycogen synthase (16.88 μg/ml), pyruvate kinase (0.27 mg/ml), lactate dehydrogenase (0.27 mg/ml) in 50 mM Tris-HCl, pH 8.0, 27 mM DTT and bovine serum albumin (BSA, 0.2 mg/ml) was added to the assay plate (columns 3-24). As a blank control, enzyme solution without glycogen synthase was added into the top half wells of columns 1-2. To the bottom half wells of columns 1-2 were added a known activator, glucose 6-phosphate (at final concentration 5 mM) in addition to the enzyme solution. The reaction mixture was incubated at room temperature. The assay plate was then read for absorbance at 340 nm on an Envision reader every 3 minutes up to a total of 15 minutes.
The enzyme activity (with or without compound) was calculated by the reaction rate and represented by the optical density change (δOD) per minute. Percent stimulation of glycogen synthase activity by a compound at various concentrations was calculated by the following formula: % stimulation=100*Rs/Rt,
Where Rs is the reaction rate of the enzyme in the presence of compound and Rt is the reaction rate of the enzyme in the absence of compound.
SC200 is defined as the compound concentration that is needed to stimulate 200% of the enzyme activity. EC50 is defined as the compound concentration that is needed to give 50% maximum activation.

SMILES | EC50 [nM] | GS SC200 [µM]
COc1cc(F)c(F)cc1-c1ccc(OCc2cccc(C(=O)N3CCC[C@H]3C(=O)O)c2)cc1 [Example 2, (S)-1-[3-(4′,5′-Difluoro-2′-methoxy-biphenyl-4-yloxymethyl)-benzoyl]-pyrrolidine-2-carboxylic acid] | 140 | 0.02
COc1cc(F)c(F)cc1-c1ccc(OCc2cccc(C(=O)N3CCC[C@@H]3C(=O)O)c2)cc1 [Example 15, (R)-1-[3-(4′,5′-Difluoro-2′-methoxy-biphenyl-4-yloxymethyl)-benzoyl]-pyrrolidine-2-carboxylic acid] | 220 | 0.05
O=C(NS(=O)(=O)C1CC1)c1cccc(COc2ccc(-c3cc(F)c(F)cc3F)cc2)c1 [Example 12, Cyclopropanesulfonic acid 3-(2′,4′,5′-trifluoro-biphenyl-4-yloxymethyl)-benzoylamide] | 690 | 0.14
COc1cc(F)c(F)cc1-c1ccc(OCc2cccc(C(=O)N(CC(=O)O)C(C)(C)C)c2)cc1 [Example 8, {tert-Butyl-[3-(4′,5′-difluoro-2′-methoxy-biphenyl-4-yloxymethyl)-benzoyl]-amino}-acetic acid] | 200 | 0.01
O=C(O)[C@@H]1CCCN1C(=O)c1cccc(COc2ccc(-c3ccc(F)cc3F)cc2)c1 [Example 1, (S)-1-[3-(2′,4′-Difluoro-biphenyl-4-yloxymethyl)-benzoyl]-pyrrolidine-2-carboxylic acid] | 120 | 0.02
COc1cc(F)c(F)cc1-c1ccc(OCc2cccc(C(=O)N(C)CC(=O)O)c2)cc1F [Example 11, {Methyl-[3-(2,4′,5′-trifluoro-2′-methoxy-biphenyl-4-yloxymethyl)-benzoyl]-amino}-acetic acid] | 160 | 0.01
CN(CC(=O)O)C(=O)c1cccc(COc2ccc(-c3cc(F)c(F)cc3F)cc2F)c1 [Example 14] | 100 | 0.01
COc1cc(F)c(F)cc1-c1ccc(OCc2nc(C(=O)N(CC(=O)O)C(C)(C)C)cs2)cc1 [Example 9, {tert-Butyl-[2-(4′,5′-difluoro-2′-methoxy-biphenyl-4-yloxymethyl)-thiazole-4-carbonyl]-amino}-acetic acid] | 110 | 0.01
O=C(c1cccc(COc2ccc(-c3cc(F)c(F)cc3F)cc2)c1)N1CCC[C@H]1c1nnn[nH]1 [Example 6, [(S)-2-(1H-Tetrazol-5-yl)-pyrrolidin-1-yl]-[3-(2′,4′,5′-trifluoro-biphenyl-4-yloxymethyl)-phenyl]-methanone] | 2100 | 0.59
CN(CC(=O)NS(C)(=O)=O)C(=O)c1cccc(COc2ccc(-c3cc(F)c(F)cc3F)cc2)c1 [Example 5, N-(2-Methanesulfonylamino-2-oxo-ethyl)-N-methyl-3-(2′,4′,5′-trifluoro-biphenyl-4-yloxymethyl)-benzamide] | 200 | 0.07

Now from value to compound, other results behind:

EC50 [nM] | SMILES | GS SC200 [µM]
80 | COc1cc(F)c(F)cc1-c1ccc(OCc2cc(C(=O)N(C)CC(=O)O)ccc2F)cc1 [Example 13, {[3-(4′,5′-Difluoro-2′-methoxy-biphenyl-4-yloxymethyl)-4-fluoro-benzoyl]-methyl-amino}-acetic acid] | 0.004
40 | Cc1cc(F)c(F)cc1-c1ccc(OCc2cccc(C(=O)N3CCC[C@H]3C(=O)O)c2)cc1 [Example 3, (S)-1-[3-(4′,5′-Difluoro-2′-methyl-biphenyl-4-yloxymethyl)-benzoyl]-pyrrolidine-2-carboxylic acid] | 0.001
100 | COc1cc(F)c(F)cc1-c1ccc(OCc2cccc(C(=O)N(C)CC(=O)O)c2)cc1 [Example 7, {[3-(4′,5′-Difluoro-2′-methoxy-biphenyl-4-yloxymethyl)-benzoyl]-methyl-amino}-acetic acid] | 0.02
100 | CN(CC(=O)O)C(=O)c1cccc(COc2ccc(-c3cc(F)c(F)cc3F)cc2)c1 [Example 10, {Methyl-[3-(2′,4′,5′-trifluoro-biphenyl-4-yloxymethyl)-benzoyl]-amino}-acetic acid] | 0.04
80 | Cc1cc(F)c(F)cc1-c1ccc(OCc2cccc(C(=O)N(C)CC(=O)O)c2)cc1 [Example 4, {[3-(4′,5′-Difluoro-2′-methyl-biphenyl-4-yloxymethyl)-benzoyl]-methyl-amino}-acetic acid] | 0.01
